Test results as given in ChEMBL document CHEMBL1681676, “The design and synthesis of novel N-hydroxyformamide inhibitors of ADAM-TS4 for the treatment of osteoarthritis” (Bioorg Med Chem Lett, 2011).

Experiments:
[1] = Intrinsic clearance in human liver microsomes
[2] = Oral bioavailability in Han Wistar rat at 3 to 10 mg/kg by LC-MS/MS analysis; type: ADME, organism-based; details: in vivo
Interstitial collagenase = target: T1, Interstitial collagenase (Homo sapiens, UniProt P03956); assay: Inhibition of recombinant human MMP1 assessed as substrate cleavage by measuring increase in fluorescence after 16 hrs
T1 sequence (P03956 whole entry): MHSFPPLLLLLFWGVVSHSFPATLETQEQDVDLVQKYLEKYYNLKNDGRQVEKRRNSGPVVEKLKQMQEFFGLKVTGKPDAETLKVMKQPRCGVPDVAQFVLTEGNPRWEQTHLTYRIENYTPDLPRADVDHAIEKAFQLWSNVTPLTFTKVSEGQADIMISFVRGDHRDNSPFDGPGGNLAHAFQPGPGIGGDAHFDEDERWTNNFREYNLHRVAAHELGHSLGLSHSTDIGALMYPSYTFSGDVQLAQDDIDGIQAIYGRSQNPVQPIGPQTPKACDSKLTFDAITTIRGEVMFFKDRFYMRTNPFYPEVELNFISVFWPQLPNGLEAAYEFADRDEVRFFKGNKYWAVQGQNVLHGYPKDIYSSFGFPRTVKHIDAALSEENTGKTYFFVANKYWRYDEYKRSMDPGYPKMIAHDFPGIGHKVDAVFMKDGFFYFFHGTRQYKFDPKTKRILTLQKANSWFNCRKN

[3] = Clearance in Han Wistar rat at 2 mg/kg, iv by LC-MS/MS analysis; type: ADME, organism-based; design: dose 2 mg/kg, route intravenous; details: in vivo
[4] = target: Matrix metalloproteinase-14 (Homo sapiens, UniProt P50281); assay: Inhibition of recombinant human MMP14 assessed as substrate cleavage by measuring increase in fluorescence after 16 hrs
[5] = Half life in Han Wistar rat at 2 mg/kg, iv and po by LC-MS/MS analysis; type: ADME, organism-based; design: dose 2 mg/kg, route oral; details: in vivo
Cytochrome P450 3A4 = Cytochrome P450 3A4 (Homo sapiens, UniProt P08684); assay: Inhibition of CYP3A4; type: ADME
[6] = target: Voltage-gated inwardly rectifying potassium channel KCNH2 (Homo sapiens, UniProt Q12809); assay: Inhibition of human ERG
Collagenase 3 = Collagenase 3 (Homo sapiens, UniProt P45452); assay: Inhibition of recombinant human MMP13 assessed as substrate cleavage by measuring increase in fluorescence after 16 hrs
[7] = Intrinsic clearance in rat hepatocytes measured per 10^6 cells; type: ADME, cell-based, Liver, Hepatocyte
Canis familiaris = assay: Volume of distribution at steady state in Beagle dog at 1 mg/kg, iv and po by LC-MS/MS analysis; type: ADME, organism-based, Canis lupus familiaris; design: dose 1 mg/kg, route oral; details: in vivo
[8] = Inhibition of aggrecanase-mediated aggrecan degradation in IL-1 and oncostatin M-stimulated human knee osteoarthritic cartilage after 48 hrs by immunoblot method
Rattus norvegicus = assay: Volume of distribution at steady state in Han Wistar rat at 2 mg/kg, iv and po by LC-MS/MS analysis; type: ADME, organism-based; design: dose 2 mg/kg, route oral; details: in vivo
[9] = target: 72 kDa type IV collagenase (Homo sapiens, UniProt P08253); assay: Inhibition of recombinant human MMP2 assessed as substrate cleavage by measuring increase in fluorescence after 16 hrs
[10] = Oral bioavailability in mouse by LC-MS/MS analysis; type: ADME, organism-based; details: in vivo
[11] = Oral bioavailability in Beagle dog at 1 mg/kg by LC-MS/MS analysis; type: ADME, organism-based, Canis lupus familiaris; details: in vivo
[12] = Half life in Beagle dog at 1 mg/kg, iv and po by LC-MS/MS analysis; type: ADME, organism-based, Canis lupus familiaris; design: dose 1 mg/kg, route oral; details: in vivo
[13] = target: Disintegrin and metalloproteinase domain-containing protein 17 (Homo sapiens, UniProt P78536); assay: Inhibition of TACE assessed as substrate cleavage by measuring increase in fluorescence after 16 hrs
[14] = Oral bioavailability in Han Wistar rat at 2 mg/kg by LC-MS/MS analysis; type: ADME, organism-based; details: in vivo
[15] = Inhibition of aggrecanase-mediated aggrecan degradation in IL-1-stimulated bovine nasal cartilage explant after 48 hrs by immunoblot method; type: tissue-based, Bos taurus
[16] = Clearance in Beagle dog at 1 mg/kg, iv by LC-MS/MS analysis; type: ADME, organism-based, Canis lupus familiaris; design: dose 1 mg/kg, route intravenous; details: in vivo
[17] = target: T2, A disintegrin and metalloproteinase with thrombospondin motifs 4 (Homo sapiens, UniProt O75173); assay: Inhibition of ADAMTS-4 assessed as substrate cleavage by measuring increase in fluorescence after 16 hrs
T2 sequence (O75173 whole entry): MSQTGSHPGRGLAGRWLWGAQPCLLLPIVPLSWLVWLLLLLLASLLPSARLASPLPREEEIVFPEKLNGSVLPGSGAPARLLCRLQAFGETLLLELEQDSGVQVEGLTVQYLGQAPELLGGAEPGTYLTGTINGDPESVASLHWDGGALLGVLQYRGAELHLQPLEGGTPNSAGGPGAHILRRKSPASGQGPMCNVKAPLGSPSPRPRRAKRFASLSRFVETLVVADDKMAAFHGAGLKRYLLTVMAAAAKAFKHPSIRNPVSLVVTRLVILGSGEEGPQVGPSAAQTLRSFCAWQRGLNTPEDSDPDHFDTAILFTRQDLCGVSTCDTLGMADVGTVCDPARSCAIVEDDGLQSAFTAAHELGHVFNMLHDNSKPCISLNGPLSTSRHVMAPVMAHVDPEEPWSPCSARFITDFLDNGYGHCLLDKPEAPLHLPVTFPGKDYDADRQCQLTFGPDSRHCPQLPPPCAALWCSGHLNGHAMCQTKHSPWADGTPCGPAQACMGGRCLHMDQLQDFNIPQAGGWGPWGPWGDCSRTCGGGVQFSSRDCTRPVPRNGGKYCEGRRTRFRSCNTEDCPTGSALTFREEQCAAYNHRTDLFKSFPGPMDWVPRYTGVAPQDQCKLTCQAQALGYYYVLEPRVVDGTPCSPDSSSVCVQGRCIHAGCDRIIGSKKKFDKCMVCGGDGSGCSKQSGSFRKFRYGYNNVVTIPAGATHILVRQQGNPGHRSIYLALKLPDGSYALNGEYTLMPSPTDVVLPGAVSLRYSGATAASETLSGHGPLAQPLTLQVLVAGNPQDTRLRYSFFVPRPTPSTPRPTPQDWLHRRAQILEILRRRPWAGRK

Sequence of Disintegrin and metalloproteinase domain-containing protein 17 (P78536 whole entry, the tested form may be a part): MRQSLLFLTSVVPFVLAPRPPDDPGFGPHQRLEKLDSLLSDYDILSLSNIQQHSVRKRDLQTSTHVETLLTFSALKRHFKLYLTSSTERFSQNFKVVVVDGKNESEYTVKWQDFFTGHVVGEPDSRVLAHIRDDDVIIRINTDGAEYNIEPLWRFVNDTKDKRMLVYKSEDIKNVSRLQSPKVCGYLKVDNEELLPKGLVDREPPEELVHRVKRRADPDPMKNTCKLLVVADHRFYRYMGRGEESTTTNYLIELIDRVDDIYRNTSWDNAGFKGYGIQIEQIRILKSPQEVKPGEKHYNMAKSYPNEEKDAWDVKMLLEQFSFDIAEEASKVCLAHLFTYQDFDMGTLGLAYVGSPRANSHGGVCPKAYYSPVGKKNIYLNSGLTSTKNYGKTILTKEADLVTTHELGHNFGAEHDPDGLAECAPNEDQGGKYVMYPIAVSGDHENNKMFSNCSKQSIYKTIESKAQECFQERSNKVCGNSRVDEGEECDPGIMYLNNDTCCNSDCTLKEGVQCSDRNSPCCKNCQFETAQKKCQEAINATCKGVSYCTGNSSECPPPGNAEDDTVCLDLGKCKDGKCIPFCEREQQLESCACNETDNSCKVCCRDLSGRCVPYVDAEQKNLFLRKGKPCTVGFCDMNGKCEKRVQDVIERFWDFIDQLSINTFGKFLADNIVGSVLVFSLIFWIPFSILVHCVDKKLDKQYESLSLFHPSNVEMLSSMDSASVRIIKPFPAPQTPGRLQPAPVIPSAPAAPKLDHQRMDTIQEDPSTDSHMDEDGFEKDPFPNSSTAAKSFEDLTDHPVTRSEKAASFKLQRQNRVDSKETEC
Sequence of Cytochrome P450 3A4 (P08684 whole entry): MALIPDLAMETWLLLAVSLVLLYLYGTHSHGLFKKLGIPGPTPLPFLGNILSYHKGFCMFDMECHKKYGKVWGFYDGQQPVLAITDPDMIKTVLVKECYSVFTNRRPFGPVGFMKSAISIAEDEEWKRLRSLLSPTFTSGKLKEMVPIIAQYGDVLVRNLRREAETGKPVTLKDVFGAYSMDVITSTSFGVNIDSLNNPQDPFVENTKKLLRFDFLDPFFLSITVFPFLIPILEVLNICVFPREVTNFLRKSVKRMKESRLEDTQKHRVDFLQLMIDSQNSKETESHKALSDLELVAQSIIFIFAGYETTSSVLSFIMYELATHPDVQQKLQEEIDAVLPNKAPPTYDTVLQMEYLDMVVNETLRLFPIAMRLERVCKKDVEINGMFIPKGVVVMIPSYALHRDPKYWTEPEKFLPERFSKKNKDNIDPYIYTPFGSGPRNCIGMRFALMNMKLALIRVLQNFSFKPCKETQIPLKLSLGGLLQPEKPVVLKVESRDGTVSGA
Sequence of Voltage-gated inwardly rectifying potassium channel KCNH2 (Q12809 whole entry): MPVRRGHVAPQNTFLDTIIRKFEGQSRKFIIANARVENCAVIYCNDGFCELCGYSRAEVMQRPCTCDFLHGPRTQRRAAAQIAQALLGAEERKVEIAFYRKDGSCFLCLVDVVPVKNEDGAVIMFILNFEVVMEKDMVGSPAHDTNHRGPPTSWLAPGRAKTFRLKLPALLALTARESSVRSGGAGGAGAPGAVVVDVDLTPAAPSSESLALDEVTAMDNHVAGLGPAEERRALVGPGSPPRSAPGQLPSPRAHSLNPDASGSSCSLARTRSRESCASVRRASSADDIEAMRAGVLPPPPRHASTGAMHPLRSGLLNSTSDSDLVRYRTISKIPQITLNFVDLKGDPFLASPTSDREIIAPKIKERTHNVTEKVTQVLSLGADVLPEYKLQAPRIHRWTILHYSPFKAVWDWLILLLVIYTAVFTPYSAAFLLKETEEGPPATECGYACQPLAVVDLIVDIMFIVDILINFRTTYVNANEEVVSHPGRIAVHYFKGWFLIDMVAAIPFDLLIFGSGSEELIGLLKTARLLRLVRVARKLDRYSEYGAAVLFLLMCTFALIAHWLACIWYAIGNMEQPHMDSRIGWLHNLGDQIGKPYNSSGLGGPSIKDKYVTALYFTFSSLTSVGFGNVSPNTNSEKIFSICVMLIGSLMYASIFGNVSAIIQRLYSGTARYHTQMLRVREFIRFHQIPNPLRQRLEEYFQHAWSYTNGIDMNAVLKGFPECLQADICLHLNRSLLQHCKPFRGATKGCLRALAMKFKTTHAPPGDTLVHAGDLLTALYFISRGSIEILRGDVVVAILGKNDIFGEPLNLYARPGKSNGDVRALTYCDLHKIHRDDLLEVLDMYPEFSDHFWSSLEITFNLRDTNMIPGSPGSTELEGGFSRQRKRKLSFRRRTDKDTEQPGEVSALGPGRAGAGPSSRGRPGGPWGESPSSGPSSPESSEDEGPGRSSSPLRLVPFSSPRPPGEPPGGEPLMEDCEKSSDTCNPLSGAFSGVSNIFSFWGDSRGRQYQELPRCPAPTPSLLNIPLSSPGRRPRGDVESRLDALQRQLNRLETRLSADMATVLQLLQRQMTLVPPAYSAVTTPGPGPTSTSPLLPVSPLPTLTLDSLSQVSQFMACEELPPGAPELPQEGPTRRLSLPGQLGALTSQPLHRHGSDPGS
Sequence of 72 kDa type IV collagenase (P08253 whole entry): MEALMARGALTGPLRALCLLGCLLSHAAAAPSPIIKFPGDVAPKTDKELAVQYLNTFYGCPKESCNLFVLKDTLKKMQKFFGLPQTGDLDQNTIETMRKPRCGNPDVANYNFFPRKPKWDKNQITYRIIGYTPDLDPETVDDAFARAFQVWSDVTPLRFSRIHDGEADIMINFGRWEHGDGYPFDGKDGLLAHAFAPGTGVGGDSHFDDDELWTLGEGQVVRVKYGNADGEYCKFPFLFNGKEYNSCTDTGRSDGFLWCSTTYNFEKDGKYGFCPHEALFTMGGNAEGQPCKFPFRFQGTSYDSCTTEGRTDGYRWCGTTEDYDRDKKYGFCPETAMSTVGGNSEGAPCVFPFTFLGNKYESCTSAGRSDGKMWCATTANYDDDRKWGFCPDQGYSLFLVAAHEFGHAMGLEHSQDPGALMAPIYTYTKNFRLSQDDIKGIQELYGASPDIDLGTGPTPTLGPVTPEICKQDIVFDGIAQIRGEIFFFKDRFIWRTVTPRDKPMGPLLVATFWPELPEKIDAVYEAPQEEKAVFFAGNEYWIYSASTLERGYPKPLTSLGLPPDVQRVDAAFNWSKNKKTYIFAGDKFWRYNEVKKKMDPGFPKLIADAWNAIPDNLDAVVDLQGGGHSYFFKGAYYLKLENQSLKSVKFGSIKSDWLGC

SMILES	IC50 (Interstitial collagenase)	IC50 [4]	IC50 (Collagenase 3)	IC50 [9]	IC50 [13]	IC50 [17]	other results
C[C@@H](C[C@@](C)(CS(=O)(=O)N1CCC(OCc2ccc(Cl)cc2Cl)CC1)N(O)C=O)c1ncc(F)cn1	> 10000 nM	430 nM	430 nM	–	–	–	microsomal CLint [1]: 107 µL/min/mg; bioavailability [2]: 0%; clearance [3]: 130 mL/min/kg; half-life [5]: 0.3 h; IC50 (Cytochrome P450 3A4): > 10000 nM; IC50 [6]: 8000 nM; hepatocyte CLint [7]: 56.9 µL/min/1e6 cells
Cc1noc(C)c1CCC1CCN(S(=O)(=O)C[C@](C)(C[C@H](C)c2ncc(F)cn2)N(O)C=O)CC1	> 19000 nM	> 8900 nM	> 8100 nM	> 6300 nM	250 nM	–	Vdss (Canis familiaris): 9.21 L/kg; IC50 [8]: 243 nM; clearance [3]: 11 mL/min/kg; Vdss (Rattus norvegicus): 7.4 L/kg; bioavailability [10]: 34%; bioavailability [11]: 20%; half-life [12]: 11.3 h; half-life [5]: 11 h; bioavailability [14]: 3.5%; IC50 [15]: 310 nM; clearance [16]: 20 mL/min/kg
C[C@@H](C[C@@H](CS(=O)(=O)N1CCN(c2ccc(F)cc2)CC1)N(O)C=O)c1ncc(F)cn1	> 1100 nM	11 nM	11 nM	–	–	1.4 nM	IC50 (Cytochrome P450 3A4): 1400 nM; IC50 [6]: 26000 nM
C[C@@H](C[C@@H](CS(=O)(=O)N1CCC(OCc2ccc(Cl)cc2Cl)CC1)N(O)C=O)c1ncc(F)cn1	9700 nM	180 nM	180 nM	–	–	1 nM	–
C[C@@H](C[C@@](C)(CS(=O)(=O)N1CCN(c2ccc(F)cc2)CC1)N(O)C=O)c1ncc(F)cn1	980 nM	7.6 nM	7.6 nM	–	–	7.3 nM	IC50 (Cytochrome P450 3A4): > 10000 nM; IC50 [6]: 21000 nM
C[C@@H](C[C@@](C)(CS(=O)(=O)N1CCC(CCc2ccc(Cl)cc2Cl)CC1)N(O)C=O)c1ncc(F)cn1	–	–	–	–	–	1.1 nM	microsomal CLint [1]: 6.9 µL/min/mg; bioavailability [2]: 38%; clearance [3]: 20 mL/min/kg; half-life [5]: 14.9 h; hepatocyte CLint [7]: 7.6 µL/min/1e6 cells
C[C@@H](C[C@@](C)(CS(=O)(=O)N1CCC(NCc2ccc(Cl)cc2Cl)CC1)N(O)C=O)c1ncc(F)cn1	–	–	–	–	–	2200 nM	–
C[C@@H](C[C@@](C)(CS(=O)(=O)N1CCC(CCc2ccc(F)cc2Br)CC1)N(O)C=O)c1ncc(F)cn1	> 8000 nM	390 nM	2300 nM	1700 nM	–	0.48 nM	–
Cc1cc(F)ccc1CCC1CCN(S(=O)(=O)C[C@](C)(C[C@H](C)c2ncc(F)cn2)N(O)C=O)CC1	> 8100 nM	160 nM	530 nM	120 nM	21 nM	0.18 nM	–
Cc1cc(C(F)(F)F)ccc1CCC1CCN(S(=O)(=O)C[C@](C)(C[C@H](C)c2ncc(F)cn2)N(O)C=O)CC1	> 10000 nM	4600 nM	2300 nM	350 nM	420 nM	0.49 nM	–
Cc1ccc(C)c(CCC2CCN(S(=O)(=O)C[C@](C)(C[C@H](C)c3ncc(F)cn3)N(O)C=O)CC2)c1	> 10000 nM	4200 nM	23000 nM	4200 nM	22 nM	0.48 nM	–
Cc1cc(CCC2CCN(S(=O)(=O)C[C@](C)(C[C@H](C)c3ncc(F)cn3)N(O)C=O)CC2)c(C)cn1	> 100000 nM	17000 nM	14000 nM	12000 nM	230 nM	0.43 nM	–
Cc1nsc(C)c1CCC1CCN(S(=O)(=O)C[C@](C)(C[C@H](C)c2ncc(F)cn2)N(O)C=O)CC1	–	2600 nM	4600 nM	2400 nM	–	0.26 nM	–
Cc1cc(C)c(CCC2CCN(S(=O)(=O)C[C@](C)(C[C@H](C)c3ncc(F)cn3)N(O)C=O)CC2)cn1	> 100000 nM	> 3700 nM	> 4500 nM	2200 nM	3000 nM	0.68 nM	–

More lines, in order of falling IC50 [17], values ahead:

IC50 (Interstitial collagenase)	IC50 [4]	IC50 (Collagenase 3)	IC50 [9]	IC50 [13]	IC50 [17]	SMILES	other results
> 10000 nM	29000 nM	6700 nM	26000 nM	2800 nM	5.4 nM	Cc1cc(CCC2CCN(S(=O)(=O)C[C@](C)(C[C@H](C)c3ncc(F)cn3)N(O)C=O)CC2)n(C)n1	–
> 70000 nM	> 18000 nM	> 16000 nM	2800 nM	27000 nM	4.2 nM	C[C@@H](C[C@@](C)(CS(=O)(=O)N1CCC(CCc2ncc(C(F)(F)F)cc2Cl)CC1)N(O)C=O)c1ncc(F)cn1	–
–	–	–	–	–	3.8 nM	C[C@@H](C[C@@](C)(CS(=O)(=O)N1CCN(CCc2ccc(Cl)cc2Cl)CC1)N(O)C=O)c1ncc(F)cn1	microsomal CLint [1]: 54 µL/min/mg; bioavailability [2]: 30%; clearance [3]: 14 mL/min/kg; half-life [5]: 5.6 h; hepatocyte CLint [7]: 10.2 µL/min/1e6 cells
> 9600 nM	56 nM	570 nM	500 nM	–	2.8 nM	C[C@@H](C[C@@](C)(CS(=O)(=O)N1CCC(CCc2cc(F)ccc2Cl)CC1)N(O)C=O)c1ncc(F)cn1	–
> 79000 nM	40000 nM	6100 nM	2500 nM	24000 nM	2.1 nM	Cc1cc(C(F)(F)F)cnc1CCC1CCN(S(=O)(=O)C[C@](C)(C[C@H](C)c2ncc(F)cn2)N(O)C=O)CC1	–
55000 nM	> 8000 nM	27000 nM	35000 nM	1400 nM	1.9 nM	Cc1cnc(C)c(CCC2CCN(S(=O)(=O)C[C@](C)(C[C@H](C)c3ncc(F)cn3)N(O)C=O)CC2)c1	–
> 10000 nM	18000 nM	17000 nM	> 9100 nM	3200 nM	0.94 nM	C[C@@H](C[C@@](C)(CS(=O)(=O)N1CCC(CCc2ccc(C(F)(F)F)cc2C2CC2)CC1)N(O)C=O)c1ncc(F)cn1	–
> 70000 nM	> 3600 nM	350 nM	180 nM	5500 nM	0.57 nM	C[C@@H](C[C@@](C)(CS(=O)(=O)N1CCC(CCc2ccc(S(C)(=O)=O)cc2Cl)CC1)N(O)C=O)c1ncc(F)cn1	–
9700 nM	3600 nM	16000 nM	1900 nM	19 nM	0.52 nM	C[C@@H](C[C@@](C)(CS(=O)(=O)N1CCC(CCc2ccc(F)cc2C(F)(F)F)CC1)N(O)C=O)c1ncc(F)cn1	–
> 100000 nM	900 nM	260 nM	170 nM	–	0.48 nM	C[C@@H](C[C@@](C)(CS(=O)(=O)N1CCC(CCc2ccc(C(F)(F)F)cc2Cl)CC1)N(O)C=O)c1ncc(F)cn1	–
> 8500 nM	360 nM	370 nM	530 nM	–	0.36 nM	Cc1cc(Cl)ccc1CCC1CCN(S(=O)(=O)C[C@](C)(C[C@H](C)c2ncc(F)cn2)N(O)C=O)CC1	–
